Source: article doi:10.1101/2025.08.13.670122v1 (bioRxiv, 2025)
Peptide text beside a SMILES is read from it.

Experiments:
Plasma stability = assay type: in vitro ADME; conditions: male Sprague-Dawley rat plasma, 6 μL of 1 mM compound (10% DMSO) in 27 μL plasma, 37°C, 0-24 h, UPLC-MS, one-phase decay, mean ± SEM of at least three experiments, read-out: Plasmatic half-life t1/2 (±SEM)
Procedure: The degradation was quenched by adding 140 μL of 1% formic acid in an acetonitrile-ethanol (1:1) solution containing 0.25 mM of N,N-dimethylbenzamide (used as an internal standard). This mixture was initially transferred to an Impact Protein Precipitation filter plate (Phenomenex, California), the filtrates from which were subsequently collected in a second 96-well UPLC plate. Both plates were centrifuged at 500 g for 10 min while maintaining a temperature of 4°C. The filtrates were then diluted with 30 μL of distilled water and processed for analysis using an Acquity UPLC-MS system class H (using an Acquity UPLC protein BEH C18 column that measured 2.1 mm × 50 mm and had 1.7 μm particles with pores 130 Å in width). The peptide half-life, derived from the degradation curve, was calculated using the exponential one-phase decay function in GraphPad Prism 9. Degradation was estimated by comparing the mass spectrum at each point with those at the zero-minute mark. The data were presented as a mean ± SEM of at least three unique experiments, each performed in singlicate.

AT1R [1] = target: T1, AT1R (Homo sapiens, UniProt P30556); experiment: Gαq activation BRET (GABY sensor) in HEK293 cells expressing AT1R; assay type: cell-based; design: expressed in transfected cells; host or cells: HEK293 cells, transient PEI transfection; conditions: for Emax Gαq (% AngII): HEK293/AT1R, GABY BRET sensor, response of the ligand at 10 μM, normalised to AngII; for EC50: HEK293 cells transiently expressing human AT1R, Gαq-RlucII/Gβ1/Gγ1-GFP10 (GABY) BRET sensor, BRET read 10 min after ligand, mean ± SEM of at least three to five independent experiments
T1 sequence (P30556 1-359): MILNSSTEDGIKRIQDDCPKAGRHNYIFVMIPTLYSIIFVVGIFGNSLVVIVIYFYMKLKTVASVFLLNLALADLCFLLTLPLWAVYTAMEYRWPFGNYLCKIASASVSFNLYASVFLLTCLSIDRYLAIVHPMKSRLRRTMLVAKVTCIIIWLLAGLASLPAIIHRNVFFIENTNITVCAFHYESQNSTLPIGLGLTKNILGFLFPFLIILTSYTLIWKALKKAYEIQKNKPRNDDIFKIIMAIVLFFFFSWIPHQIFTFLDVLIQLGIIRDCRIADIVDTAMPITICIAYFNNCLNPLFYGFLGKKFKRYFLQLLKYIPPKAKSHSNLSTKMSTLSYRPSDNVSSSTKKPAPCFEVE
Description: (§1) We utilized a clonal cell line HEK293, referred to hereafter as HEK293 cells, which has been previously described.[7],[8] As a gracious gift from A. Inoue (Tohoku University, Sendai, Miyagi, Japan), CRISPR Gαq/11 and Gα12/13 knockout cell lines (ΔGq/11 and ΔG12/13, respectively), were derived as previously explained.[48] In brief, a CRISPR-Cas9 system was used to target either GNAQ and GNA11 or GNA12 and GNA13 genes in HEK293T cells simultaneously to generate the Gαq/11 and Gα12/13 knockout cell lines. For the production of adenovirus, we utilized HEK293A cells. All cells were grown in DMEM supplemented with 10% FBS and Penicillin-Streptomycin-L-Glutamine (10000 IU penicillin, 10000 µg/mL Streptomycin, 200 mM L-Glutamine) at 37°C in T175 flasks under a 5% CO2 humidified chamber. Periodic testing was carried out for mycoplasma contamination (ABM™, Mycoplasma PCR Detection kit). For all biosensors used, cells underwent transfection with the PEI reagent, employing a PEI:DNA ratio of 3:1. For the Gαq biosensor, HEK293 cells were transfected with the plasmids coding for Gαq-RLucII (120 ng), Gβ1 (3000 ng), Gγ1-GFP10 (3000 ng), human AT1 (3000 ng) and Salmon sperm DNA (SSD) (880 ng). For the β-arrestin2 recruitment assay, HEK293 cells were transfected with the plasmids coding for 120 ng β-arrestin-2-RLucII, 3000 ng AT1, 3000 ng rGFP-CAAX, and 3880 ng SSD. For the measurement of PKC, HEK293 cells were transfected with 3000 ng AT1, 600 ng PKC-c1b, and 6400 ng SSD. […] 100 µL of the cell/DNA mixture was added to white 96-well plates and incubated at 37°C at 5% CO2 for 48 h. For the Rho assay, ΔG12/13 cells were seeded at a density of 9,000 cells per well in poly-ornithine-coated white 96-well plates and transfected the following day. In brief, 1 μg of total DNA in 100 μL of PBS was mixed with 100 μL of PBS containing 3 μL of 1 mg/mL PEI. For Rho signaling, 150 ng of AT1R DNA with 25 ng of PKN-RBD-RlucII [8], and 100 ng of rGFP-CAAX were used. Empty pcDNA was used to reach 1 µg of the total DNA amount in 100 μL of PBS. The DNA was then mixed with 100 μL of PBS containing 3 μL of 1 mg/mL PEI. After a 20-min incubation, the DNA/PEI complexes were dispensed into cells in 96-well plates (15 µL/well), and the experiment was carried out 48 h post-transfection.
(§2) On the day of the experiment, each well was washed with 80 µL of Tyrode’s buffer (140 mM NaCl, 2.7 mM KCl, 1 mM CaCl2, 12 mM NaHCO3, 5.6 mM D-glucose, 0.5 mM MgCl2, 0.37 mM NaH2PO4, 25 mM Hepes (pH 7.4)). This was followed by incubation for 1 h in Tyrode’s buffer at room temperature. For the Gαq, β-arrestin-2, and PKC biosensors used in HEK293 cells, coelenterazine 400A (at a final concentration of 5 μM) was added 10 min before stimulation. Cells were then stimulated with increasing doses of the indicated ligand, and BRET signals were measured using a Tristar2 (Berthold) microplate reader 10 min later. For the PKC and Rho biosensors in VSMCs, and the Rho biosensor in ΔG12/13 cells, cells were similarly stimulated with ligands for 1 min, 1 min 30 s, and 3 min, respectively, before BRET measurement. […] BRET signals were then measured using a Synergy2 (BioTek) microplate reader. The applied filter set was 410/80 nm and 515/30 nm, designed to detect the light emissions of RlucII (Renilla luciferase) (donor) and rGFP (acceptor), respectively.

AT1R [2] = target: T1, AT1R; experiment: β-arrestin2 recruitment BRET (β-arrestin2-RLucII/rGFP-CAAX) in HEK293 cells expressing AT1R; assay type: cell-based; design: expressed in transfected cells; host or cells: HEK293 cells, transient PEI transfection; conditions: for Emax βarr2 (% AngII): HEK293/AT1R, β-arrestin2 BRET, response of the ligand at 10 μM, normalised to AngII; for EC50: HEK293 cells transiently expressing AT1R, β-arrestin2-RLucII/rGFP-CAAX BRET, read 10 min after ligand, mean ± SEM of at least three to five independent experiments, SEM, read-out: EC50 βarr2
Description: as §1, §2

SMILES	half-life at 182 µM (Plasma stability)	Emax Gαq (% AngII) (AT1R [1])	EC50 (AT1R [1])	EC50 (AT1R [1]; SEM)	Emax βarr2 (% AngII) (AT1R [2])	EC50 (AT1R [2])
CC[C@H](C)[C@H](NC(=O)[C@H](Cc1ccc(O)cc1)NC(=O)[C@@H](NC(=O)[C@H](CCCNC(=N)N)NC(=O)[C@@H](N)CC(=O)O)C(C)C)C(=O)N[C@@H](Cc1c[nH]cn1)C(=O)N1CCC[C@H]1C(=O)N[C@@H](Cc1ccccc1Cl)C(=O)O [29a]	32 ± 3 min					
CC[C@H](C)[C@H](NC(=O)[C@H](Cc1ccc(O)cc1)NC(=O)[C@@H](NC(=O)[C@H](CCCNC(=N)N)NC(=O)[C@@H](N)CC(=O)O)C(C)C)C(=O)N[C@@H](Cc1c[nH]cn1)C(=O)N1CCC[C@H]1C(=O)N[C@@H](Cc1cccnc1)C(=O)O [compound 18]		31 % AngII		22 ± 11 nM	90 % AngII	3.7 ± 0.7 nM
CC[C@H](C)[C@H](NC(=O)[C@H](Cc1ccc(O)cc1)NC(=O)[C@@H](NC(=O)[C@H](CCCNC(=N)N)NC(=O)[C@@H](N)CC(=O)O)C(C)C)C(=O)N[C@@H](Cc1c[nH]cn1)C(=O)N1CCC[C@H]1C(=O)N[C@@H](Cc1cscn1)C(=O)O [compound 20]		29 % AngII		14 ± 13 nM	97 % AngII	1.9 ± 0.3 nM
CC[C@H](C)[C@H](NC(=O)[C@H](Cc1ccc(O)cc1)NC(=O)[C@@H](NC(=O)[C@H](CCCNC(=N)N)NC(=O)[C@@H](N)CC(=O)O)C(C)C)C(=O)N[C@@H](Cc1c[nH]cn1)C(=O)N1CCC[C@H]1C(=O)N[C@@H](Cc1c[nH]c2ccccc12)C(=O)O [compound 21] (H-DRVYIHPW-OH; N-terminus assumed)		91 % AngII			107 % AngII	

More lines, in order of falling EC50 (AT1R [1]; SEM), values ahead:

half-life at 182 µM (Plasma stability)	Emax Gαq (% AngII) (AT1R [1])	EC50 (AT1R [1])	EC50 (AT1R [1]; SEM)	Emax βarr2 (% AngII) (AT1R [2])	EC50 (AT1R [2])	SMILES
	37 % AngII		7.5 ± 6.3 nM	105 % AngII	5.2 ± 1 nM	CC[C@H](C)[C@H](NC(=O)[C@H](Cc1ccc(O)cc1)NC(=O)[C@@H](NC(=O)[C@H](CCCNC(=N)N)NC(=O)[C@@H](N)CC(=O)O)C(C)C)C(=O)N[C@@H](Cc1c[nH]cn1)C(=O)N1CCC[C@H]1C(=O)N[C@@H](Cc1ccncc1)C(=O)O [compound 17]
	48 % AngII		6.9 ± 2.6 nM	101 % AngII	2.2 ± 0.4 nM	CC[C@H](C)[C@H](NC(=O)[C@H](Cc1ccc(O)cc1)NC(=O)[C@@H](NC(=O)[C@H](CCCNC(=N)N)NC(=O)[C@@H](N)CC(=O)O)C(C)C)C(=O)N[C@@H](Cc1c[nH]cn1)C(=O)N1CCC[C@H]1C(=O)N[C@@H](Cc1ccccn1)C(=O)O [compound 19]
			4.7 ± 1.1 nM		2.2 ± 0.4 nM	CC[C@H](C)[C@H](NC(=O)[C@H](Cc1ccc(O)cc1)NC(=O)[C@@H](NC(=O)[C@H](CCCN=C(N)N)NC(=O)[C@@H](N)CC(=O)O)C(C)C)C(=O)N[C@@H](Cc1c[nH]cn1)C(=O)N1CCC[C@H]1C(=O)N[C@@H](Cc1c[nH]c2ccccc12)C(=O)O [compound 21] (H-DRVYIHPW-OH)
	26 % AngII	> 10000 nM	2.3 ± 4 nM	87 % AngII	3 ± 0.5 nM	CC[C@H](C)[C@H](NC(=O)[C@H](Cc1ccc(O)cc1)NC(=O)[C@@H](NC(=O)[C@H](CCCNC(=N)N)NC(=O)[C@@H](N)CC(=O)O)C(C)C)C(=O)N[C@@H](Cc1c[nH]cn1)C(=O)N1CCC[C@H]1C(=O)N[C@@H](COCc1ccccc1)C(=O)O [compound 16]
